Experimental data: US7105483B2, “Phosphinic pseudopeptide derivatives for the selective inhibition of the C-terminal active site of angiotensin I converting enzyme (ACE)” (Commissariat a l'Energie Atomique, priority 2002, dated 2006)
Like-named read-outs stand apart in the source and are kept apart here. One block for each compound: values may come before it.

What was measured:
[1] = target: N-terminal site of human recombinant ACE (Homo sapiens, UniProt P12821); assay: Inhibition constants with respect to the N-terminal site of ACE (quenched-fluorescence substrate); format: biochemical; conditions: first HPLC fraction; substrate Mca-Ala-Ser-Asp-Lys-DpaOH; 25° C., pH 6.8, 50 mM HEPES, 10 mM CaCl2, 200 mM NaCl
Chain of N-terminal site of human recombinant ACE (P12821 30-1306): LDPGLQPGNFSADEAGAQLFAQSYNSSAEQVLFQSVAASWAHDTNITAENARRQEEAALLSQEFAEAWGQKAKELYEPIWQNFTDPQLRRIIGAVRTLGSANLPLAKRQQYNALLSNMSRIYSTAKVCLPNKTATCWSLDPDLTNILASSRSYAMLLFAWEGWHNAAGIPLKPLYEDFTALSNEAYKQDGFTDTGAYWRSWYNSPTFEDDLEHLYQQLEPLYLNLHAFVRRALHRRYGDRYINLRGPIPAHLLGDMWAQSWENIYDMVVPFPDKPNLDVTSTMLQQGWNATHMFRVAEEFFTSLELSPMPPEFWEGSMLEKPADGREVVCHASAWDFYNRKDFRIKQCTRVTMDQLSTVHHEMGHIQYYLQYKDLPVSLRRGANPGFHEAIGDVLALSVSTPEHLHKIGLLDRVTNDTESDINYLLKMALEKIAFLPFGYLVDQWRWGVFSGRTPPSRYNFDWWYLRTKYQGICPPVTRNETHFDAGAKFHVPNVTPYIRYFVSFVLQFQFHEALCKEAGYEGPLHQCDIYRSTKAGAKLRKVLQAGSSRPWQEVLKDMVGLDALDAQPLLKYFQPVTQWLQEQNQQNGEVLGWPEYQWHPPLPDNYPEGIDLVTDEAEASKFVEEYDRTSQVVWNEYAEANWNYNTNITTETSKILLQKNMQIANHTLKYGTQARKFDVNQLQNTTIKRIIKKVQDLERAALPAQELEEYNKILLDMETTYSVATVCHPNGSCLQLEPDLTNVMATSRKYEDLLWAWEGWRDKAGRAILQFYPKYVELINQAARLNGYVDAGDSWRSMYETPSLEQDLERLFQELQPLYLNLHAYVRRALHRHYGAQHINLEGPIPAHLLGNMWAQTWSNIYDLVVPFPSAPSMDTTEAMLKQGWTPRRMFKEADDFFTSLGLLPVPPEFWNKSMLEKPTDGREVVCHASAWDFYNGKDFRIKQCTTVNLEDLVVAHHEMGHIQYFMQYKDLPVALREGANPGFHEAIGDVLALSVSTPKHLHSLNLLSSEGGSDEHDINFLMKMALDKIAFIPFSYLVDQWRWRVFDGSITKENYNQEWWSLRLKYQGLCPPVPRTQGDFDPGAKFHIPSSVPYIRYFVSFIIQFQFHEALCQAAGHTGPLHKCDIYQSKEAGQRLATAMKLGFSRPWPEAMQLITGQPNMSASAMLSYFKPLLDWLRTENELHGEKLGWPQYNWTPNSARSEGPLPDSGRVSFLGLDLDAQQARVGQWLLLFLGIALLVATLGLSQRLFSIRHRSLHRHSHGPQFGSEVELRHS
From the text: (§1) Human recombinant ACE is used for this determination. Curves of inhibition of ACE with pseudopeptides A to G are obtained using the quenched-fluorescence substrate Mca-Ala: Mca-Ala-Ser-Asp-Lys-DpaOH (Mca: […]; DpaOH: N-3-(2,4-dinitrophenyl)-L-2,3-diaminopropionyl).
(§2) The first fraction collected during the purification of each of the pseudopeptides A to G by HPLC (peak 1 of FIG. 2 for pseudopeptide G) is used for these tests.
(§3) From the inhibition profiles obtained with this substrate, for each pseudopeptide A to G, it is possible to determine the constants Ki N and Ki C by following the procedure described by Dive et al..
(§4) The inhibition experiments were performed at 25° C., pH 6.8, 50 mM HEPES, 10 mM, CaCl2, 200 mM NaCl.

[2] = target: C-terminal site of human recombinant ACE (Homo sapiens, UniProt P12821); assay: Inhibition constants with respect to the C-terminal site of ACE (quenched-fluorescence substrate); format: biochemical; conditions: first HPLC fraction; substrate Mca-Ala-Ser-Asp-Lys-DpaOH; 25° C., pH 6.8, 50 mM HEPES, 10 mM CaCl2, 200 mM NaCl
Chain of C-terminal site of human recombinant ACE (P12821 30-1306): as above
From the text: as §1, §2, §3, §4

[3] = target: ACE (Homo sapiens, UniProt P12821); assay: Inhibitory power of HPLC-isolated diastereoisomers/fractions with respect to ACE; format: biochemical; conditions: HPLC-isolated diastereoisomer / first fraction (peak 1)
Chain of ACE (P12821 30-1306): as above
From the text: In this figure, 4 peaks corresponding to the 4 diastereoisomers present in pseudopeptide G are observed (these 4 peaks have an identical mass spectrum, mass observed MH^+=618.23, expected mass=617.23).

[4] = test system: conversion of angiotensin I into angiotensin II; assay: In vivo cleavage of angiotensin I to angiotensin II in mice; conditions: perfusion over 30 minutes, C57BL6/J mice
Experimental: (§5) This study is performed on batches of male C57BL6/J mice (Iffa Credo) weighing 20 to 23 g each, each batch comprising 6 mice.
(§6) To do this, the mice are anaesthetized by means of an intraperitoneal administration of sodium pentobarbital (Sanofi) at a dose of 80 mg/kg of body weight. The right carotid artery is isolated and a catheter (PE10, 0.28×0.61, A-M Systems, Inc.) is inserted into this artery to allow the withdrawal of blood samples, while another catheter (FEP, 0.12×0.67, Carnegie Medecin) is inserted into the ipsilateral jugular vein to allow the administration of the substances. Throughout the experiment, the body temperature of the mice is maintained at 38° C. […]
(§7) Samples of arterial blood, of about 50 μl, are withdrawn 30, 60 and 90 seconds after injection of the angiotensin I mixture or of the bradykinin mixture to the mice that received these mixtures, and 1, 5, 10 and 15 minutes after the start of injection of the Ac-SDKP mixture to the mice that received the latter mixture. […] The exact amounts of blood withdrawn are determined by reweighing the tubes. […]

[5] = test system: cleavage of the peptide Ac-SDKP; assay: In vivo cleavage of the peptide Ac-SDKP in mice; conditions: 10 mg/kg of body weight, versus saline control
Experimental: as §5, §6, §7

[6] = test system: cleavage of bradykinin; assay: In vivo cleavage (protection) of bradykinin in mice; conditions: 10 mg/kg of body weight; protection with perindopril arbitrarily set at 100%; C57BL6/J mice
Experimental: as §5, §6, §7

[7] = mice; cited from earlier work
[8] = test system: degradation of the peptide N-acetyl Ser-Asp-Lys-Pro (Ac-SDKP); conditions: mice, reference [9]; cited from earlier work
[9] = rats; cited from earlier work

Compound: CC(NC(=O)CCP(=O)(O)C(Cc1ccccc1)NC(=O)OCc1ccccc1)C(=O)O (centres unmarked) [Pseudopeptide A, reference compound]
Ki [1]: 0.8 nM | Ki [2]: 0.8 nM

Compound: CC(NC(=O)C1CCCC1P(=O)(O)C(Cc1ccccc1)NC(=O)OCc1ccccc1)C(=O)O (centres unmarked) [Pseudopeptide B]
Ki [1]: 450 nM | inhibitory power with respect to ACE [3]: capable of inhibiting ACE | Ki [2]: 20 nM

Compound: O=C(NC(Cc1ccccc1)P(=O)(O)C1CCCC1C(=O)N1CCCC1C(=O)O)OCc1ccccc1 (centres unmarked) [Pseudopeptide C]
Ki [1]: 60 nM | inhibitory power with respect to ACE [3]: capable of inhibiting ACE | Ki [2]: 4 nM

Compound: CC(=O)N[C@@H](CC(=O)O)C(=O)N[C@@H](Cc1ccccc1)P(=O)(O)C[C@@H](C)C(=O)N[C@@H](C)C(N)=O [RXP407]
increase of the plasmatic content of Ac-SDKP relative to control mice ([5]; mice): 16 fold | metabolism in vivo [7]: not metabolized | inhibition of the degradation of Ac-SDKP in vivo [8]: capable of inhibiting the degradation | metabolism in vivo [9]: not metabolized

Compound: CCC[C@H](N[C@@H](C)C(=O)N1[C@H](C(=O)O)C[C@@H]2CCCC[C@@H]21)C(=O)OCC [perindopril, reference compound]
degree of protection of bradykinin [6]: 100%

Now from value to compound, other results behind:

Ki [1]: 200 nM | inhibitory power with respect to ACE [3]: capable of inhibiting ACE | Ki [2]: 9 nM
Compound: N=C(N)NCCCC(NC(=O)C1CCCC1P(=O)(O)C(Cc1ccccc1)NC(=O)OCc1ccccc1)C(=O)O (centres unmarked) [Pseudopeptide D]

Ki [1]: 8000 nM | inhibitory power with respect to ACE [3]: capable of inhibiting ACE | Ki [2]: 60 nM
Compound: CC(NC(=O)OCc1ccccc1)P(=O)(O)C1CCCC1C(=O)NC(CCCc1c[nH]c2ccccc12)C(=O)O (centres unmarked) [Pseudopeptide E]

Ki [1]: 8000 nM | inhibitory power with respect to ACE [3]: capable of inhibiting ACE | Ki [2]: 60 nM
Compound: O=C(NC(CCc1ccccc1)P(=O)(O)C1CCCC1C(=O)NC(CCCc1c[nH]c2ccccc12)C(=O)O)OCc1ccccc1 (centres unmarked) [Pseudopeptide F]

Ki [1]: 10000 nM | inhibitory power with respect to ACE [3]: shows inhibitory power | Ki [2]: 3 nM
Compound: O=C(NC(Cc1ccccc1)P(=O)(O)C1CCCC1C(=O)NC(Cc1c[nH]c2ccccc12)C(=O)O)OCc1ccccc1 (centres unmarked) [Pseudopeptide G]
reduction of the angiotensin II/angiotensin I ratio measured in the control mice ([4]; 0.9 mg/kg of body weight): 50% | reduction of the angiotensin II/angiotensin I ratio measured in the control mice ([4]; 30 mg/kg of body weight): 90% | effect on the cleavage of the peptide Ac-SDKP ([5]; C57BL6/J mice): no significant effect | degree of protection of bradykinin [6]: 9.2%
